Source: BindingDB's records for doi:10.1016/j.bioorg.2015.07.005 (Birla Institute of Technology, 2015)

Biological target: Genome polyprotein (Dengue virus type 2 (strain Thailand/NGS-C/1944), UniProt P14340)
Assay: DENV2 Protease Assay
Settings: pH 8.5
Method: To measure the inhibitory activities of the compounds, the DENV2 NS2B-NS3 protease activities were measured in the presence of the compounds using Bz-Nle-Lys-Arg-Arg-AMC as a substrate. The enzyme concentration in the assay was 125 nM, and the substrate concentration was 20 µM in 10 mM Tris-HCl pH 8.5, 20% glycerol, and 1 mM CHAPS. The inhibitor concentrations were 100 µM for the first round and between 3.125 and 400 µM for the compounds 16 and 19 in the second round. Before adding the substrate, the enzyme and the inhibitors were incubated at 37 °C for 15 min. All reactions were performed in 96-well plates with a final volume of 50 µL per each wells using the FLx800 fluorescence microplate reader (excitation = 380 nm; emission = 460 nm).

Sequence of Genome polyprotein (P14340 1346-1475 limits assumed): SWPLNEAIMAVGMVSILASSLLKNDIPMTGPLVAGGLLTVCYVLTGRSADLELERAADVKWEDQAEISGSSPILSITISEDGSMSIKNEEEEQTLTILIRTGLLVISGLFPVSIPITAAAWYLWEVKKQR
Sequence of Genome polyprotein (P14340 1476-2093 limits assumed): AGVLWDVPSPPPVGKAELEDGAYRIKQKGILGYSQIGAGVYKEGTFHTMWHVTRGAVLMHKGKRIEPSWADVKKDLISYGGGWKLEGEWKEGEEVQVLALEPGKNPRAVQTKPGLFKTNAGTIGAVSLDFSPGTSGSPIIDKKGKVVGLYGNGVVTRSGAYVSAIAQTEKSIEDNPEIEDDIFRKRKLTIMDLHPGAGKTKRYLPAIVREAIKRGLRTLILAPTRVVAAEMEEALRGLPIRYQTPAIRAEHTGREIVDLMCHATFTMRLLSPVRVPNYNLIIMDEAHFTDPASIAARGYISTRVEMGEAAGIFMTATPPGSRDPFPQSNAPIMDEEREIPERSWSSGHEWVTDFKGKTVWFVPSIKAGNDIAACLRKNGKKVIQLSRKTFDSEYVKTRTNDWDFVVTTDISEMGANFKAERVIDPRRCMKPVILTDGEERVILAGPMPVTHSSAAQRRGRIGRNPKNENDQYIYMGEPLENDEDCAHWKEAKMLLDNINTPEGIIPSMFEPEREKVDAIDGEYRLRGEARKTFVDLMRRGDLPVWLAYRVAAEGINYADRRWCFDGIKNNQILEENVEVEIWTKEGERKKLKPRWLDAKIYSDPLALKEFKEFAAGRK

| IC50 [µM] | SMILES |
| --- | --- |
| > 100 | S=C(Nc1ccc(C(c2c[nH]c3ccccc23)c2c[nH]c3ccccc23)cc1)Nc1cccc(Br)c1 |
| > 100 | CN1CCN(S(=O)(=O)c2ccc(N3C(=O)c4ccccc4C3=O)cc2)CC1 [2-(4-(4-Methylpiperazin-1-ylsulphonyl)phenyl)isoindoline-1,3-dione (6)] |
| > 100 | O=C1c2ccccc2C(=O)N1c1ccc(S(=O)(=O)N2CCCCC2)cc1 [2-(4-(Piperidin-1-ylsulphonyl)phenyl)isoindoline-1,3-dione (5)] |
| > 100 | CN(C)S(=O)(=O)c1ccc(N2C(=O)c3ccccc3C2=O)cc1 [4-(1,3-Dioxoisoindolin-2-yl)-N,N-dimethyl benzenesulphonamide (2)] |
| > 100 | O=C1c2ccccc2C(=O)N1c1ccc(S(=O)(=O)Nc2ccccc2O)cc1 [4-(1,3-Dioxoisoindolin-2-yl)-N-(2-hydroxyphenyl)benzenesulphonamide (8)] |
| > 100 | COc1cccc(NS(=O)(=O)c2ccc(N3C(=O)c4ccccc4C3=O)cc2)c1 [4-(1,3-Dioxoisoindolin-2-yl)-N-(3-methoxyphenyl)benzenesulphonamide (9)] |
| 48.2 | CCc1ccc(NS(=O)(=O)c2ccc(N3C(=O)c4ccccc4C3=O)cc2)cc1 [4-(1,3-Dioxoisoindolin-2-yl)-N-(4-ethylphenyl)benzenesulphonamide (16)] |
| > 100 | COc1ccc(NS(=O)(=O)c2ccc(N3C(=O)c4ccccc4C3=O)cc2)cc1 [4-(1,3-Dioxoisoindolin-2-yl)-N-(4-methoxyphenyl)benzenesulphonamide (10)] |
| > 100 | O=C1c2ccccc2C(=O)N1c1ccc(S(=O)(=O)Nc2ccc([N+](=O)[O-])cc2)cc1 [4-(1,3-Dioxoisoindolin-2-yl)-N-(4-nitrophenyl)benzenesulphonamide (17)] |
| 122 | O=C1c2ccccc2C(=O)N1c1ccc(S(=O)(=O)Nc2cccc3ccccc23)cc1 [4-(1,3-Dioxoisoindolin-2-yl)-N-(naphthalen-1-yl)benzenesulphonamide (19)] |
| > 100 | Cc1cccc(NS(=O)(=O)c2ccc(N3C(=O)c4ccccc4C3=O)cc2)c1 [4-(1,3-Dioxoisoindolin-2-yl)-N-m-tolylbenzenesulphonamide (14)] |
| > 100 | Cc1ccccc1NS(=O)(=O)c1ccc(N2C(=O)c3ccccc3C2=O)cc1 [4-(1,3-Dioxoisoindolin-2-yl)-N-o-tolylbenzenesulphonamide (13)] |
| > 100 | Cc1ccc(NS(=O)(=O)c2ccc(N3C(=O)c4ccccc4C3=O)cc2)cc1 [4-(1,3-Dioxoisoindolin-2-yl)-N-p-tolylbenzenesulphonamide (15)] |
| > 100 | O=C1c2ccccc2C(=O)N1c1ccc(S(=O)(=O)NCCc2ccccc2)cc1 [4-(1,3-Dioxoisoindolin-2-yl)-N-phenethylbenzenesulphonamide (20)] |
| > 100 | O=C1c2ccccc2C(=O)N1c1ccc(S(=O)(=O)Nc2ccccc2)cc1 [4-(1,3-Dioxoisoindolin-2-yl)-N-phenylbenzenesulphonamide (7)] |
| > 100 | NS(=O)(=O)c1ccc(N2C(=O)c3ccccc3C2=O)cc1 [4-(1,3-Dioxoisoindolin-2-yl)benzenesulphonamide (1)] |
| > 100 | O=C(O)c1ccc(NS(=O)(=O)c2ccc(N3C(=O)c4ccccc4C3=O)cc2)cc1 [4-(4-(1,3-Dioxoisoindolin-2-yl)phenylsulphonamido)benzoic acid (18)] |
| > 100 | O=C1c2ccccc2C(=O)N1c1ccc(S(=O)(=O)Nc2cccc(Cl)c2)cc1 [N-(3-chlorophenyl)-4-(1,3-dioxoisoindolin-2-yl)benzenesulphonamide (11)] |
| > 100 | O=C1c2ccccc2C(=O)N1c1ccc(S(=O)(=O)Nc2ccc(Cl)cc2)cc1 [N-(4-chlorophenyl)-4-(1,3-dioxoisoindolin-2-yl)benzenesulphonamide (12)] |
